Here are results for 15 molecules from ChEMBL document CHEMBL4622872, “Discovery of DS-1971a, a Potent, Selective NaV1.7 Inhibitor” (J Med Chem, 2020).

Data set [1] is described as follows: Aqueous thermodynamic solubility of the compound at pH 6.8 measured after 4 hrs by UV-HPLC analysis. It counts as physicochemical. The conditions noted are these: buffer, pH 6.8; read-out: Therm_solubility.
The nature of data set [2]: Distribution coefficient, log D of the compound in 1-octanol and PBS buffer at pH 7.4 measured after 30 mins by LC-MS analysis. In kind it is physicochemical. The conditions noted are these: 1-octanol/PBS buffer.
Data set [3] can be described thus: Stability of the compound in mouse liver microsomes assessed as parent compound remaining measured after 0.5 hrs. In kind it is ADME, Microsome. The conditions noted are these: for remaining at 0.5 h: mouse liver microsomes, read-out: Stability.

Converted amounts (≈) assume the structure as drawn.

As a reminder, the logD is lipophilicity at a set pH, counting ionised and neutral species. The low end stands for lower lipophilicity, the high end for higher lipophilicity.

For `Cn1nccc1[C@H]1CCC[C@@H]1Oc1cc(F)c(S(=O)(=O)Nc2ncns2)cc1F` (racemic), the solubility thermodynamic at 4 h in data set [1] was over 1900 µM. For the same molecule, in data set [2], the logD at 0.5 h was 0.6. For the same molecule, the remaining at 0.5 h in data set [3] was determined as 91%.
The matching figures for `Cn1nccc1[C@H]1CCC[C@@H]1Oc1cc(F)c(S(=O)(=O)Nc2nccs2)cc1F` (racemic): 250 µM (≈ 110 µg/mL), 2.1 and 54%.
In the same order, the values of `Cn1nccc1[C@H]1CCCC[C@@H]1Oc1cc(F)c(S(=O)(=O)Nc2cscn2)cc1F` (racemic) are 660 µM (≈ 300 µg/mL), 1.8 and 28%.
`Cc1cc(S(=O)(=O)Nc2ccncn2)c(F)cc1O[C@H]1CCC[C@@H]1c1ccnn1C` (racemic): in data set [1], the solubility thermodynamic at 4 h stood at 1200 µM (≈ 518 µg/mL). Besides, the logD at 0.5 h in data set [2] is 0.9. Moreover, the remaining at 0.5 h in data set [3] was determined as 87%.
Take `Cn1nccc1[C@H]1CCC[C@@H]1Oc1cc(F)c(S(=O)(=O)Nc2ccncn2)cc1Cl` (racemic): the solubility thermodynamic at 4 h in data set [1] was 240 µM (≈ 108 µg/mL). The molecule also had a logD at 0.5 h in data set [2] of 0.9. Also, the remaining at 0.5 h in data set [3] turned out to be 88%.
`Cc1cc(S(=O)(=O)Nc2ccncn2)c(F)cc1O[C@H]1CCCC[C@@H]1c1ccnn1C` (racemic): in data set [1], the solubility thermodynamic at 4 h is 1800 µM (≈ 802 µg/mL). In data set [2], this molecule came in with a logD at 0.5 h of 0.9. Moreover, the remaining at 0.5 h in data set [3] worked out at 75%.
The matching figures for `Cn1nccc1[C@H]1CCCC[C@@H]1Oc1cc(F)c(S(=O)(=O)Nc2ccncn2)cc1F` (racemic): 1900 µM (≈ 854 µg/mL), 0.3 and 80%.
The matching figures for `Cc1nsc(NS(=O)(=O)c2cc(F)c(O[C@H]3CCC[C@@H]3c3ccnn3C)cc2F)n1` (racemic): 1800 µM (≈ 820 µg/mL), 0.9 and 69%.
In the same order, the values of `Cn1nccc1[C@H]1CCCC[C@@H]1Oc1cc(F)c(S(=O)(=O)Nc2ncns2)cc1F` (racemic) are over 2000 µM, 0.7 and 75%.
Take `Cn1nccc1[C@H]1CCC[C@@H]1Oc1cc(F)c(S(=O)(=O)Nc2ccncn2)cc1F` (racemic): the solubility thermodynamic at 4 h in data set [1] is 740 µM (≈ 322 µg/mL). In data set [2], this molecule yielded a logD at 0.5 h of 0.3. Moreover, the remaining at 0.5 h in data set [3] amounted to 100%.
Take `Cn1nccc1[C@H]1CCCCC[C@@H]1Oc1cc(F)c(S(=O)(=O)Nc2ccncn2)c(F)c1` (racemic): the solubility thermodynamic at 4 h in data set [1] was 1040 µM (≈ 482 µg/mL). Moreover, in data set [2], the logD at 0.5 h was 0.6. The remaining at 0.5 h in data set [3] is 97%.
In the same order, the values of `Cn1nccc1[C@H]1CCC[C@@H]1Oc1cc(F)c(S(=O)(=O)Nc2ccncn2)c(F)c1` (racemic) are 1800 µM (≈ 784 µg/mL), 0.1 and 80%.
For the molecule `Cn1nccc1[C@H]1CCCC[C@@H]1Oc1cc(F)c(S(=O)(=O)Nc2ccncn2)c(F)c1` (racemic), the solubility thermodynamic at 4 h in data set [1] stood at 1800 µM (≈ 809 µg/mL). This molecule also had a logD at 0.5 h in data set [2] of 0.1. Further, the remaining at 0.5 h in data set [3] was determined as 77%.
The matching figures for `Cn1nccc1[C@H]1CCC[C@@H]1Oc1ccc(S(=O)(=O)Nc2ccncn2)c(F)c1F` (racemic): 550 µM (≈ 240 µg/mL), 0.4 and 82%.
In the case of `Cn1nccc1[C@H]1CCCC[C@@H]1Oc1cc(F)c(S(=O)(=O)Nc2ccncn2)cc1Cl` (racemic) [DS-1971], the solubility thermodynamic at 4 h in data set [1] is over 2000 µM. In addition, the logD at 0.5 h in data set [2] was 0.8. For the same molecule, the Stability in data set [3] (microsomes, 0.5 h) is on record as 70%.
